# According to US20100266623A1, “SYNTHETIC, SELF ADJUVANTING VACCINES” (priority 2008, published 2010):
# Structures can show the parent of a compound that is named as a salt. Where no end group is shown, it is not given here.
# What was measured:
# anti-DNP antibodies = experiment: Inhibition ELISA for specificity of anti-DNP antibodies on DNP-BSA coated plates; format: binding, BALB/c mice; details: for inhibition of antibody binding to DNP-BSA coated plates: inhibitor dilutions from 25 nmol/well; for inhibition of antibody binding to DNP-BSA coated plates by irrelevant inhibitors: sera not specified
# Protocol: Competitive ELISA assays involved an extra step whereby ½ log dilutions of inhibitors in BSA5PBST beginning at 25 nmol/well were added to a constant limiting concentration of antibody in BSA5PBST and incubated for 2 hours on separate polyvinyl plates during the blocking step of a regular ELISA. 50 μl/well of the inhibitor and sera mixtures were then transferred to coated, blocked and washed plates and incubated overnight. Plates were then conjugated with HRP-RαM, developed, and read as per ELISA. The percentage of inhibition was determined by the following formula: […]
# Inhibition ELISAs were utilised to determine whether antibody-titres detected in previous direct-binding ELISAs consisted mainly of anti-DNP antibodies. All immunogens (peptide- and protein-based) incorporated the 2,4-DNP isomer.
# Sera were incubated with different amounts of various inhibitors (FIG. 14) before addition to DNP-BSA coated plates.
# [1] = tested on: anti-amphetamine antibodies; experiment: Competitive ELISA for specificity of anti-amphetamine antibodies; format: binding; details: 2° sera of mice immunised with lipidated amphetamine-TH(MV); coat 5 μg per ml
# [2] = 2° sera of BALB/c mice immunised with DNP-BSA in CFA
# [3] = 2° sera of BALB/c mice immunised with lipidated DNP-TH(MV)
compound,measurement,setting,value
"O=[N+]([O-])c1ccc(O)c([N+](=O)[O-])c1 [2,4-DNP, 2,4-dinitrophenol]",inhibition of antibody binding to DNP-BSA coated plates,anti-DNP antibodies; [2],No inhibition
same,inhibition of antibody binding to DNP-BSA coated plates,anti-DNP antibodies; [3],35%
"O=C(O)CCCCCNc1ccc([N+](=O)[O-])cc1[N+](=O)[O-] [2,4-DNP-ahx, 2,4-dinitrophenol-ε-amino-n-caproic acid]",inhibition of antibody binding to DNP-BSA coated plates,anti-DNP antibodies; [2],approximately 55%
same,inhibition of antibody binding to DNP-BSA coated plates,anti-DNP antibodies; [3],approximately 80%
"C[C@H](N)Cc1ccccc1 [Amphetamine-sulfate, D-amphetamine sulfate]",inhibition of antibody binding to amphetamine-TH(ova) coated plates,[1],low level of inhibition
CN[C@@H](C)Cc1ccccc1 [Methamphetamine hydrochloride],inhibition of antibody binding to amphetamine-TH(ova) coated plates,[1],No inhibition
COC(=O)[C@H]1[C@@H](OC(=O)c2ccccc2)C[C@@H]2CC[C@H]1N2C [cocaine hydrochloride],inhibition of antibody binding to amphetamine-TH(ova) coated plates,[1],No inhibition
Oc1ccccc1 [phenol],inhibition of antibody binding to DNP-BSA coated plates by irrelevant inhibitors,anti-DNP antibodies,no inhibition
N[C@@H](Cc1ccc(O)cc1)C(=O)O [tyrosine],inhibition of antibody binding to DNP-BSA coated plates by irrelevant inhibitors,anti-DNP antibodies,no inhibition
"amphetamine-TH(Flu): succinyl amphetamine-Lys-TH(Flu) peptide, no lipid; coating antigen and inhibitor (KALNNRFQIKGVELKS; not fully specified)",inhibition of antibody binding to amphetamine-TH(ova) coated plates,[1],lower level of inhibition
